Assays:
RipA [1] = target: T1, RipA (Yersinia pestis, UniProt Q9ZC36); conditions: 10 mM acid vs 10 mM acetate, butyryl-CoA as CoA donor, 100 mM Tris pH 7.0, room temperature; competing acceptor acid
RipA [2] = target: T1, RipA; conditions: 5 µM RipA, 20 µM ligand, 100 mM potassium phosphate pH 7.4; Tm with ligand, apo RipA 45.8 °C
RipA [3] = target: T1, RipA; conditions: active site near Glu249; crystals grown with succinyl-CoA and tacsimate pH 5.0; acetate is the CoA acceptor in the activity assay
[4] = target: Yersinia pestis RipA (Yersinia pestis); test: SEC
[5] = target: Yersinia pestis RipA (Yersinia pestis); test: SAXS
[6] = target: Yersinia pestis RipA (Yersinia pestis); test: crystal structure

O=C(O)CCCO [4-hydroxybutyrate]
% decrease in the rate of acetyl-CoA formation (RipA [1]): 10%

CC(=O)CC(=O)SCCNC(=O)CCNC(=O)[C@H](O)C(C)(C)COP(=O)(O)OP(=O)(O)OC[C@H]1O[C@@H](n2cnc3c(N)ncnc32)[C@H](O)[C@@H]1OP(=O)(O)O [Aceto-acetyl-CoA]
Tm (°C) (RipA [2]): 48.3±0.01 °C

CC(=O)SCCNC(=O)CCNC(=O)[C@H](O)C(C)(C)COP(=O)(O)OP(=O)(O)OC[C@H]1O[C@@H](n2cnc3c(N)ncnc32)[C@H](O)[C@@H]1OP(=O)(O)O [Acetyl-CoA]
Tm (°C) (RipA [2]): 52.8±0.03 °C

CCCC(=O)SCCNC(=O)CCNC(=O)[C@H](O)C(C)(C)COP(=O)(O)OP(=O)(O)OC[C@H]1O[C@@H](n2cnc3c(N)ncnc32)[C@H](O)[C@@H]1OP(=O)(O)O [Butyryl-CoA]
Tm (°C) (RipA [2]): 53.4±0.05 °C

C/C=C/C(=O)SCCNC(=O)CCNC(=O)[C@H](O)C(C)(C)COP(=O)(O)OP(=O)(O)OC[C@H]1O[C@@H](n2cnc3c(N)ncnc32)[C@H](O)[C@@H]1OP(=O)(O)O [Crotonyl-CoA]
Tm (°C) (RipA [2]): 47.9±0.54 °C

CCC(=O)SCCNC(=O)CCNC(=O)[C@H](O)C(C)(C)COP(=O)(O)OP(=O)(O)OC[C@H]1O[C@@H](n2cnc3c(N)ncnc32)[C@H](O)[C@@H]1OP(=O)(O)O [Propionyl-CoA]
Tm (°C) (RipA [2]): 53.5±0.06 °C

CC(C)(COP(=O)(O)OP(=O)(O)OC[C@H]1O[C@@H](n2cnc3c(N)ncnc32)[C@H](O)[C@@H]1OP(=O)(O)O)[C@@H](O)C(=O)NCCC(=O)NCCSC(=O)CCC(=O)O [Succinyl-CoA]
Tm (°C) (RipA [2]): 52.8±0.28 °C

CC(=O)O [acetate]
X-ray crystal structure, 1.9 Å (RipA [3]): electron density near the active site glutamate suggests an acetate molecule is located within

CCCC(=O)O [butyrate]
% decrease in the rate of acetyl-CoA formation (RipA [1]): 80%

CCC(=O)O [propionate]
% decrease in the rate of acetyl-CoA formation (RipA [1]): 80%

Yersinia pestis RipA (enzyme)
stoichiometry N [4]: 4
stoichiometry N [5]: 4
stoichiometry N [6]: 4
